Patent US20230374462A1, “METHOD FOR PRODUCING MYOCARDIAL STEM/PROGENITOR CELL AND METHOD FOR SUPPRESSING MYOCARDIAL FIBROSIS” (priority 2020, published 2023)

Columns and labels:
[1] = system: primary human cardiomyocytes (HCM); experiment: Long-term culture with low-speed imaging of cardiomyocytes in presence of low molecular weight compound; assay type: cell-based; settings: for long-term culture (proliferation): HCM, FIG. 1B; for cell morphology of cardiomyocytes: long-term culture, FIG. 1A
Description: (§1) The subcultured human cardiomyocytes were seeded at 0.5×10^2 cells/cm^2 on a 35 mm plate (IWAKI) containing: 3 mL of a Vascular Smooth Muscle Cell growth medium containing 3-(6-methyl-2-pyridinyl)-n-phenyl-4-(4-quinolinyl)-1H-pyrazole-1-carbothioamide (A-83-01: A) (final concentration: 1 AM) as a low molecular weight compound TGFβ receptor inhibitor or (1R,4r)-4-((R)-1-aminoethyl)-N-(pyridin-4-yl)cyclohexanecarboxamide (Y-27632: Y) (final concentration: 10 AM) as a ROCK inhibitor, both of the compounds A-83-01 and Y-27632, or free of them: or a Myocyte basal medium. On Day 3, the Vascular Smooth Muscle Cell growth medium containing each low molecular weight compound or the Myocyte basal medium was replaced. Thereafter, the medium was replaced in the same manner every three days.
After the medium replacement, low-speed imaging was performed using a BZ9000 all-in-one fluorescence microscope (KEYENCE). In addition, the individual cells were tracked throughout the imaging period (110 days), and the final number of cells derived from each cell was measured.

HCM cells [2] = experiment: Quantitative RT-PCR of progenitor, maturation and senescence markers; assay type: cell-based, human; settings: for number of cell death due to the treatment: concluded from senescence markers
Description: as §1
(§2) Total RNA was isolated from each cardiomyocyte 1 month and 2 months after culture in the presence of the test low molecular weight compound using miRNeasy Mini Kit (QIAGEN). Reverse transcription reactions were performed using High-Capacity cDNA Reverse Transcription Kit Lifetechnologies according to manufacturer's guidelines. PCR was performed using the obtained cDNA as a template and a Taqman Probe (ThermoFisher). An expression level of a target gene was standardized with β-actin as an endogenous control.

PC-100-021 cells [3] = experiment: as above; assay type: cell-based, human; settings: for number of cell death due to the treatment: concluded from senescence markers
Description: as §1, §2

HCM cells [4] = experiment: Western blot of endothelial cell marker (CD31) and muscle cell marker (Troponin T); assay type: cell-based, human; settings: FIG. 3B
Excerpt: (§3) FIG. 3 A: Graphs showing mRNA expression of the myocardial progenitor cell markers (GATA4 and VCAM-1), the maturation marker (MYL2), and senescence markers (CDKN1A and CDKN2A) for cardiomyocytes, in the cardiomyocytes treated with the TGFβ receptor inhibitor (A) or the ROCK inhibitor (Y). In each graph, the vertical axis represents the expression amount (Relative mRNA expression) of each mRNA when the expression amount of the cells before culture is 1, and the numerical values on the horizontal axis represent culture periods (day). B: Photographs showing the results of confirming, by Western blot, loss of the expression of an endothelial cell marker (CD31), and expression of a muscle cell marker (Troponin T) and Actin, in primary human cardiomyocytes (HCM) or primary human coronary artery smooth muscle cells (PC-100-021) treated with the TGFβ receptor inhibitor (A) or the ROCK inhibitor (Y). NT indicates an agent-untreated control, and HUVEC indicates a result of using human umbilical vein endothelial cells (CD31-positive as the endothelial cell marker).

PC-100-021 cells [5] = experiment: as above; assay type: cell-based, human; settings: FIG. 3B
Excerpt: as §3

[6] = system: primary human coronary artery smooth muscle cells (PC-100-021); experiment: Long-term culture with low-speed imaging in presence of low molecular weight compound; assay type: cell-based; settings: FIG. 1C
[7] = 1 and 2 months culture, vs agent untreated group, FIG. 2
[8] = culture periods in days, FIG. 3A

SMILES | long-term culture (proliferation) [1] | cell morphology of cardiomyocytes [1] | decrease in progenitor cell markers (GATA4 and VCAM-1) mRNA during culture (HCM cells [2]; [7]) | increase in maturation marker (MYL2) mRNA during culture (HCM cells [2]; [7]) | expression of senescence markers (CDKN1A and CDKN2A) mRNA (HCM cells [2]; FIG. 3A) | number of cell death due to the treatment (HCM cells [2]) | decrease in progenitor cell markers (GATA4 and VCAM-1) mRNA during culture (HCM cells [2]; [8]) | increase in maturation marker (MYL2) mRNA during culture (HCM cells [2]; [8]) | decrease in progenitor cell markers (GATA4 and VCAM-1) mRNA during culture (PC-100-021 cells [3]; [7]) | increase in maturation marker (MYL2) mRNA during culture (PC-100-021 cells [3]; [7]) | expression of senescence markers (CDKN1A and CDKN2A) mRNA (PC-100-021 cells [3]; FIG. 3A) | number of cell death due to the treatment (PC-100-021 cells [3]) | decrease in progenitor cell markers (GATA4 and VCAM-1) mRNA during culture (PC-100-021 cells [3]; [8]) | increase in maturation marker (MYL2) mRNA during culture (PC-100-021 cells [3]; [8]) | expression of endothelial cell marker (CD31) (HCM cells [4]) | expression of muscle cell marker (HCM cells [4]) | expression of endothelial cell marker (CD31) (PC-100-021 cells [5]) | expression of muscle cell marker (PC-100-021 cells [5]) | long-term culture (proliferation) [6]
C[C@@H](N)[C@H]1CC[C@H](C(=O)Nc2ccncc2)CC1 [Y-27632, (1R,4r)-4-((R)-1-aminoethyl)-N-(pyridin-4-yl)cyclohexanecarboxamide] | long-term culture was induced | maintained the original cell morphology | suppressed | suppressed | hardly expressed | small | suppressed | suppressed | suppressed | suppressed | hardly expressed | small | suppressed | suppressed | not expressed | expressed | not expressed | expressed | –
Cc1cccc(-c2nn(C(=S)Nc3ccccc3)cc2-c2ccnc3ccccc23)n1 [A-83-01, 3-(6-methyl-2-pyridinyl)-n-phenyl-4-(4-quinolinyl)-1H-pyrazole-1-carbothioamide] | long-term culture was induced | maintained the original cell morphology | promoted | promoted | hardly expressed | small | – | promote | promoted | promoted | hardly expressed | small | – | promote | not expressed | expressed | not expressed | expressed | long-term culture was induced
